# Assay results taken from patent US20220048869A1, “PHENAZINE-BASED COMPOUND, ELECTROLYTIC LIQUID COMPRISING SAME FOR REDOX FLOW BATTERY, AND REDOX FLOW BATTERY” (LOTTE CHEMICAL CORPORATION, priority 2018, published 2022).
# Test: Solubility (maximum soluble amount) in acetonitrile solution including 0.1 M TBAPF6
# Format: physicochemical
# Settings: for solubility: acetonitrile solution including 0.1 M TBAPF6, organic solvent or mixture, maximum soluble amount in acetonitrile solution including TBAPF6 at 0.1 M
# Method: Each of the phenazine-based compounds provided according to Example 1 and Comparative Example 1 was dissolved in an acetonitrile solution including TBAPF6 at a concentration of 0.1 M, and the maximum soluble amounts of the phenazine-based compounds were identified, and the results are shown in the following Table 1.
solubility,"fold higher solubility in a non-aqueous solvent than DMPZ (non-aqueous solvent, relative to DMPZ)",Structure (SMILES)
500 mM,at least 10 fold,"COCCN1c2ccccc2N(CCOC)c2ccccc21 [Example 1, 5,10-bis(2-methoxyethyl)-5,10-dihydrophenazine]"
50 mM,,"CN1c2ccccc2N(C)c2ccccc21 [Comparative Example 1, 5,10-dimethyl-5,10-dihydrophenazine, reference compound]"
